The supplement of paper PMC10307832

Key:
Experiment in all cases: relative viability (nuclei count vs DMSO), 5 days (fraction); higher = more cells survive
Alpelisib + Trametinib = compound: Cc1nc(NC(=O)N2CCC[C@H]2C(N)=O)sc1-c1ccnc(C(C)(C)C(F)(F)F)c1 [Alpelisib] + CC(=O)Nc1cccc(-n2c(=O)n(C3CC3)c(=O)c3c(Nc4ccc(I)cc4F)n(C)c(=O)c(C)c32)c1 [Trametinib] (partner 0.02 µM)
Outline: (§1)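 Relative viability is defined as nuclei in treated wells over nuclei in vehicle wells. Duplicate plates were run and medians reported. Lung cancer cell lines in 1536-well plates were dosed by pin tool one day after seeding, with one drug or with a fixed anchor-drug dose plus five library-drug doses (not always all listed) in √10 steps, and nuclei were counted after 5 days.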

Alpelisib + Luminespib = compound: Cc1nc(NC(=O)N2CCC[C@H]2C(N)=O)sc1-c1ccnc(C(C)(C)C(F)(F)F)c1 [Alpelisib] + CCNC(=O)c1noc(-c2cc(C(C)C)c(O)cc2O)c1-c1ccc(CN2CCOCC2)cc1 [Luminespib] (partner 0.01 µM)
Outline: as §1

OSI-027 + AZD7762 = compound: COc1cccc2cc(-c3nc([C@H]4CC[C@H](C(=O)O)CC4)n4ncnc(N)c34)[nH]c12 [OSI-027] + NC(=O)Nc1cc(-c2cccc(F)c2)sc1C(=O)N[C@H]1CCCNC1 [AZD7762] (partner 0.2 µM)
Outline: as §1

Vemurafenib + OSI-027 = compound: CCCS(=O)(=O)Nc1ccc(F)c(C(=O)c2c[nH]c3ncc(-c4ccc(Cl)cc4)cc23)c1F [Vemurafenib] + COc1cccc2cc(-c3nc([C@H]4CC[C@H](C(=O)O)CC4)n4ncnc(N)c34)[nH]c12 [OSI-027] (partner 0.5 µM)
Outline: as §1

Row | Cell Line | relative viability (Alpelisib + Trametinib; first compound 0.04 µM) | relative viability (Alpelisib + Trametinib; first compound 0.1265 µM) | relative viability (Alpelisib + Trametinib; first compound 0.4 µM) | relative viability (Alpelisib + Trametinib; first compound 1.265 µM) | relative viability (Alpelisib + Trametinib; first compound 4 µM) | relative viability (Alpelisib + Luminespib; first compound 0.04 µM) | relative viability (Alpelisib + Luminespib; first compound 0.1265 µM) | relative viability (Alpelisib + Luminespib; first compound 0.4 µM) | relative viability (Alpelisib + Luminespib; first compound 1.265 µM) | relative viability (Alpelisib + Luminespib; first compound 4 µM) | relative viability (OSI-027 + AZD7762; first compound 0.01 µM) | relative viability (OSI-027 + AZD7762; first compound 0.03162 µM) | relative viability (OSI-027 + AZD7762; first compound 0.1 µM) | relative viability (OSI-027 + AZD7762; first compound 0.3162 µM) | relative viability (OSI-027 + AZD7762; first compound 1 µM) | relative viability (Vemurafenib + OSI-027; first compound 0.03162 µM) | relative viability (Vemurafenib + OSI-027; first compound 0.3162 µM) | relative viability (Vemurafenib + OSI-027; first compound 1 µM) | relative viability (Vemurafenib + OSI-027; first compound 0.1 µM)
1 | H3255 | 0.649 | 0.541 | 0.642 | 0.422 | 0.391 | 0.896 | 0.765 | 1.17 | 0.733 | 0.625 | 0.888 | 0.958 | 0.714 | 0.832 | 0.613 | 0.582 | 0.583 | 0.565 | 
2 | NCI-H1993 | 0.539 | 0.477 | 0.5 | 0.483 | 0.49 | 0.751 | 0.744 | 0.758 | 0.476 | 0.503 | 0.777 | 0.728 | 0.606 | 0.542 | 0.416 | 0.523 | 0.607 | 0.494 | 
3 | NCI-H1792 | 0.271 | 0.383 | 0.467 | 0.324 | 0.314 | 0.338 | 0.5 | 0.576 | 0.326 | 0.323 | 0.673 | 0.704 | 0.682 | 0.668 | 0.192 | 0.705 |  | 0.704 | 0.616
4 | NCI-H2085 | 0.57 | 0.468 | 0.496 | 0.495 | 0.338 | 0.504 | 0.419 | 0.46 | 0.415 | 0.364 | 0.978 | 0.925 | 0.953 | 0.97 | 0.61 | 0.645 | 0.663 | 0.637 | 0.37
5 | EPLC-272H | 0.268 | 0.255 | 0.315 | 0.238 | 0.231 | 0.74 | 0.253 | 0.155 | 0.19 | 0.164 | 0.262 | 0.212 | 0.162 | 0.0961 | 0.124 | 0.268 | 0.275 | 0.243 | 0.219
6 | HARA | 0.633 | 0.732 | 0.529 | 0.257 | 0.265 | 0.406 | 0.955 | 0.896 | 0.515 | 0.341 | 0.27 | 0.301 | 0.36 | 0.419 | 0.365 | 0.428 | 0.407 | 0.229 | 0.186
7 | LU99A | 0.573 | 0.558 | 0.599 | 0.425 | 0.386 | 0.298 | 0.216 | 0.249 | 0.226 | 0.247 | 0.462 | 0.321 | 0.28 | 0.133 | 0.171 | 0.325 | 0.244 | 0.287 | 0.28
8 | NCI-H2087 | 0.183 | 0.174 | 0.195 | 0.163 | 0.164 | 0.176 | 0.198 | 0.174 | 0.17 | 0.159 | 1.32 | 1.1 | 1.4 | 1.1 | 0.929 | 0.481 |  | 0.514 | 0.565
9 | NCI-H1734 | 0.566 | 0.626 | 0.624 | 0.533 | 0.394 | 0.19 |  | 0.18 | 0.183 | 0.167 | 0.619 | 0.532 | 0.537 | 0.408 | 0.251 | 0.583 | 0.49 | 0.507 | 0.568
10 | HCC-44 | 1.05 | 1.12 | 1.03 | 0.849 | 0.81 | 1.11 | 1.08 | 1.2 | 0.614 | 0.84 | 0.984 | 1.03 | 1.03 | 1.06 | 1.1 | 0.419 |  | 0.426 | 0.361
11 | NCI-H2170 | 0.91 | 0.857 | 0.921 | 0.666 | 0.549 | 0.561 | 0.875 | 1.12 | 0.575 | 0.373 | 0.995 | 0.824 | 0.768 | 0.689 | 0.515 | 0.67 | 0.686 | 0.7 | 0.194
12 | PC-3 [JPC-3] | 0.704 | 0.602 | 0.685 | 0.655 | 0.578 | 0.731 | 0.567 | 0.739 | 0.687 | 0.622 | 0.778 | 0.703 | 0.521 | 0.42 | 0.505 | 0.698 | 0.724 | 0.731 | 
13 | NCI-H1651 | 0.752 | 0.828 | 0.807 | 0.759 | 0.561 | 0.78 | 1.05 | 1 | 0.78 | 0.666 | 0.471 | 0.415 | 0.425 | 0.465 | 0.417 | 0.733 | 0.698 | 0.829 | 0.725
14 | NCI-H460 | 0.093 | 0.161 | 0.155 | 0.0725 | 0.0881 | 0.0253 | 0.0415 | 0.0319 | 0.0281 | 0.0206 | 0.731 | 0.668 | 0.473 | 0.548 | 0.336 | 0.549 | 0.456 | 0.473 | 0.623
15 | LOU-NH91 | 0.773 | 0.686 | 0.696 | 0.649 | 0.591 | 0.239 | 0.266 | 0.311 | 0.247 | 0.27 | 0.762 | 0.702 | 0.667 | 0.597 | 0.482 | 0.72 |  | 0.726 | 
16 | RERF-LC-KJ | 0.86 | 0.933 | 0.895 | 0.645 | 0.693 | 1.32 | 1.16 | 1.36 | 0.917 | 1.03 | 1.05 | 0.742 | 0.871 | 0.748 | 0.452 | 0.651 | 0.533 | 0.632 | 0.454
17 | EKVX | 0.306 | 0.334 | 0.27 | 0.341 | 0.249 | 0.877 | 0.712 | 0.961 | 0.844 | 0.552 | 0.694 | 0.726 | 0.666 | 0.692 | 0.562 | 0.634 | 0.791 | 0.688 | 
18 | NCI-H441 | 0.472 | 0.383 | 0.388 | 0.247 | 0.263 | 0.395 | 0.324 | 0.333 | 0.272 | 0.312 | 1.35 | 1.07 | 1.24 | 0.934 | 0.499 | 0.57 | 0.584 | 0.418 | 0.476
19 | NCI-H1395 | 1.07 | 1 | 1.13 | 0.817 | 0.878 | 0.568 | 0.663 | 0.755 | 0.604 | 0.724 | 0.316 | 0.398 | 0.396 | 0.352 | 0.386 | 0.606 |  | 0.659 | 0.651
20 | CAL-12T | 0.371 | 0.259 | 0.378 | 0.266 | 0.193 | 0.394 | 0.61 | 0.287 | 0.177 | 0.332 | 0.626 | 0.741 | 0.603 | 0.668 | 0.585 | 0.542 | 0.801 | 0.503 | 0.461
21 | 201T | 0.7 | 0.723 | 0.716 | 0.645 | 0.586 | 1.08 | 1.02 | 1.02 | 0.961 | 0.956 | 0.562 | 0.691 | 0.585 | 0.472 | 0.511 | 0.757 | 0.776 | 0.497 | 0.78
22 | LC-2-ad | 0.902 | 0.93 | 0.968 | 0.764 | 0.738 | 0.985 | 0.97 | 1.3 | 0.846 | 0.827 | 0.835 | 0.77 | 0.879 | 0.894 | 0.615 | 0.753 |  | 0.747 | 0.629
23 | NCI-H1793 | 0.424 | 0.289 | 0.536 | 0.406 | 0.39 | 0.194 | 0.177 | 0.154 | 0.165 | 0.179 | 0.409 | 0.435 | 0.399 | 0.36 | 0.239 | 0.274 | 0.316 | 0.3 | 
24 | LCLC-103H | 0.669 | 0.693 | 0.646 | 0.567 | 0.475 | 0.97 | 0.993 | 1.04 | 0.72 | 0.735 | 0.8 | 0.717 | 0.748 | 0.64 | 0.542 | 0.41 | 0.39 | 0.443 | 0.474
25 | NCI-H1944 | 0.354 | 0.425 | 0.4 | 0.313 | 0.275 | 0.644 | 0.739 | 0.706 | 0.456 | 0.275 | 0.611 | 0.43 | 0.648 | 0.56 | 0.371 | 0.395 | 0.336 | 0.352 | 0.285
26 | NCI-H650 | 0.996 | 0.921 | 0.962 | 0.749 | 0.774 | 0.752 | 0.744 | 0.985 | 0.559 | 0.664 | 0.925 | 1.06 | 0.955 | 0.902 | 0.375 | 0.459 |  | 0.421 | 0.473
27 | ChaGo-K-1 | 0.725 | 0.963 | 0.856 | 0.756 | 0.586 | 0.61 | 0.488 | 0.706 | 0.585 | 0.507 | 0.912 | 0.902 | 0.936 | 0.836 | 0.756 | 0.535 | 0.419 | 0.487 | 0.549
28 | NCI-H2347 | 0.29 | 0.285 | 0.394 | 0.244 | 0.232 | 0.476 | 0.632 | 0.626 | 0.503 | 0.522 | 0.683 | 0.733 | 0.756 | 0.595 | 0.299 | 0.436 | 0.577 | 0.367 | 0.37
29 | PC-14 | 0.735 | 0.686 | 0.62 | 0.292 | 0.709 | 0.154 |  | 0.168 | 0.13 | 0.144 | 0.369 | 0.314 | 0.302 | 0.35 | 0.22 | 0.822 | 0.741 | 0.767 | 
